# In US8278455B2, “5- or 6-substituted benzimidazole derivatives as inhibitors of respiratory syncytial virus replication” (Janssen Pharmaceutica N.V., priority 2003, dated 2012):
# Test system: Respiratory Syncytial Virus
# Test: In vitro screening for activity against Respiratory Syncytial Virus (MTT tetrazolium colorimetric assay, HeLa cells)
# Type: cell-based
# Conditions: human respiratory syncytial virus, 168 h; protection against RSV cytopathology in HeLa cells, 7 days after infection; pEC50 = −log of EC50 in molar units
# From the text: The percent protection against cytopathology caused by viruses (antiviral activity or EC50) achieved by tested compounds and their cytotoxicity (CC50) are both calculated from dose-response curves. The selectivity of the antiviral effect is represented by the selectivity index (SI), calculated by dividing the CC50 (cytotoxic dose for 50% of the cells) by the EC50 (antiviral activity for 50% of the cells). The tables in the above experimental part list the category to which each of the prepared compounds belong. Compounds belonging to activity category “A” have an pEC50 (−log of EC50 when expressed in molar units) equal to or more than 7. Compounds belonging to activity category “B” have a pEC50 value between 6 and 7.
# Automated tetrazolium-based […] assays were used for determination of EC50 and CC50 of test compounds. Flat-bottom, 96-well plastic microtiter trays were filled with 180 μl of Eagle's Basal Medium, supplemented with 5% FCS (0% for FLU) and 20 mM Hepes buffer. Subsequently, stock solutions (7.8× final test concentration) of compounds were added in 45 μl volumes to a series of triplicate wells so as to allow simultaneous evaluation of their effects on virus- and mock-infected cells. Five five-fold dilutions were made directly in the microtiter trays using a robot system. Untreated virus controls, and HeLa cell controls were included in each test. Approximately 100 TCID50 of Respiratory Syncytial Virus was added to two of the three rows in a volume of 50 μl. The same volume of medium was added to the third row to measure the cytotoxicity of the compounds at the same concentrations as those used to measure the antiviral activity. After two hours of incubation, a suspension (4×10^5 cells/ml) of HeLa cells was added to all wells in a volume of 50 μl. The cultures were incubated at 37° C. in a 5% CO2 atmosphere. Seven days after infection the cytotoxicity and the antiviral activity was examined spectrophotometrically. To each well of the microtiter tray, 25 μl of a solution of MTT (3-(4,5-dimethylthiazol-2-yl)-2,5-diphenyltetrazolium bromide) was added. The trays were further incubated at 37° C. for 2 hours, after which the medium was removed from each cup. Solubilization of the formazan crystals was achieved by adding 100 μl 2-propanol. Complete dissolution of the formazan crystals were obtained after the trays have been placed on a plate shaker for 10 min. Finally, the absorbances were read in an eight-channel computer-controlled photometer (Multiskan MCC, Flow Laboratories) at two wavelengths (540 and 690 nm). The absorbance measured at 690 nm was automatically subtracted from the absorbance at 540 nm, so as to eliminate the effects of non-specific absorption.
row,EC50 [µM],Compound
1,0.0631,"Cc1cccc(C(=O)Nc2ccc3nc(NC4CCN(C)CC4)n(Cc4nc(C)ccc4O)c3c2)c1 [Compound 65, N-[3-(3-hydroxy-6-methyl-pyridin-2-yl-methyl)-2-(1-methyl-piperidin-4-ylamino)-3H-benzoimidazol-5-yl]-3-methyl-benzamide]"
2,0.126,"Cc1cccc(C(=O)Nc2ccc3c(c2)nc(NC2CCN(C)CC2)n3Cc2nc(C)ccc2O)c1 [Compound 78, N-[1-(3-hydroxy-6-methyl-pyridin-2-ylmethyl)-2-(1-methyl-piperidin-4-ylamino)-1H-benzoimidazol-5-yl]-3-methyl-benzamide]"

# Same assay, conditions: protection against RSV cytopathology in HeLa cells, 7 days after infection; pEC50 = −log of EC50 in molar units
row,Compound,Activity
1,Cc1ccc(O)c(Cn2c(NC3CCN(C)CC3)nc3ccc(CNc4ccc(Br)cc4C)cc32)n1 [Compound 63],7.3
2,Cc1ccc(O)c(Cn2c(NC3CCN(C)CC3)nc3ccc(CNc4ccc(Nc5ccccc5)cc4)cc32)n1 [Compound 64],7.3
3,Cc1ccc(O)c(Cn2c(NC3CCN(C)CC3)nc3ccc(CNc4cccc(Oc5ccccc5)c4)cc32)n1 [Compound 66],7.2
4,COc1ccc(NCc2ccc3nc(NC4CCN(C)CC4)n(Cc4nc(C)ccc4O)c3c2)cc1F [Compound 67],7.2
5,Cc1ccc(O)c(Cn2c(NC3CCN(C)CC3)nc3ccc(CNc4ccc(Br)c(C)c4)cc32)n1 [Compound 68],7.2
6,Cc1ccc(O)c(Cn2c(NC3CCN(C)CC3)nc3ccc(CNc4ccc(Br)c(F)c4)cc32)n1 [Compound 69],7.2
7,Cc1ccc(O)c(Cn2c(NC3CCN(C)CC3)nc3ccc(CNc4ccc(Cl)cc4Cl)cc32)n1 [Compound 70],7.2
8,Cc1ccc(O)c(Cn2c(NC3CCN(C)CC3)nc3ccc(CNc4ccc(C(F)(F)F)cc4)cc32)n1 [Compound 71],7.2
9,CCOC(=O)c1ccccc1NCc1ccc2nc(NC3CCN(C)CC3)n(Cc3nc(C)ccc3O)c2c1 [Compound 72],7.1
10,Cc1ccc(NCc2ccc3nc(NC4CCN(C)CC4)n(Cc4nc(C)ccc4O)c3c2)c(Cl)c1 [Compound 73],7.1
11,CCc1cc(Br)ccc1NCc1ccc2nc(NC3CCN(C)CC3)n(Cc3nc(C)ccc3O)c2c1 [Compound 74],7.1
12,Cc1ccc(O)c(Cn2c(NC3CCN(C)CC3)nc3ccc(CNc4c(C)cccc4C)cc32)n1 [Compound 75],7
13,Cc1ccc(O)c(Cn2c(NC3CCN(C)CC3)nc3ccc(CNc4ccc(C(C)C)cc4)cc32)n1 [Compound 76],7
14,Cc1ccc(O)c(Cn2c(NC3CCN(C)CC3)nc3ccc(CNc4cc(Cl)c(Cl)cc4Cl)cc32)n1 [Compound 77],7
15,Cc1ccc(O)c(Cn2c(NC3CCN(C)CC3)nc3ccc(Cn4ccnc4)cc32)n1 [Compound 79],6.9
16,Cc1ccc(O)c(Cn2c(NC3CCN(C)CC3)nc3ccc(CN(Cc4ccccc4)c4ccccc4)cc32)n1 [Compound 80],6.9
17,Cc1ccc(O)c(Cn2c(NC3CCN(C)CC3)nc3ccc(CN4CCc5cc(Br)ccc54)cc32)n1 [Compound 81],6.9
18,Cc1ccc(O)c(Cn2c(NC3CCN(C)CC3)nc3ccc(CNc4c(C)cccc4C(C)C)cc32)n1 [Compound 82],6.9
19,Cc1ccc(O)c(Cn2c(NC3CCN(C)CC3)nc3ccc(CNc4ccc(Cl)cc4Br)cc32)n1 [Compound 83],6.9

row,Compound,Activity
1,Cc1ccc(CCc2ccc3nc(NC4CCN(C)CC4)n(Cc4nc(C)ccc4O)c3c2)cc1 [Compound 84],6.8
2,Cc1ccc(O)c(Cn2c(NC3CCN(C)CC3)nc3ccc(CN(CCO)Cc4ccccc4)cc32)n1 [Compound 85],6.8
3,Cc1ccc(O)c(Cn2c(NC3CCN(C)CC3)nc3ccc(C(O)c4ccccc4)cc32)n1 (stereo not shown) [Compound 86],6.8
4,Cc1ccc(O)c(Cn2c(NC3CCN(C)CC3)nc3ccc(CNc4c(C)cc(Br)cc4C)cc32)n1 [Compound 87],6.8
5,Cc1cc(C)c(NCc2ccc3nc(NC4CCN(C)CC4)n(Cc4nc(C)ccc4O)c3c2)c(Cl)c1 [Compound 88],6.8
6,Cc1ccc(O)c(Cn2c(NC3CCN(C)CC3)nc3ccc(CNc4ccc(Br)cc4Cl)cc32)n1 [Compound 89],6.8
7,Cc1ccc(O)c(Cn2c(NC3CCN(C)CC3)nc3cc(NC(=O)c4ccccc4)ccc32)n1 [Compound 90],6.7
8,Cc1ccc(O)c(Cn2c(NC3CCN(C)CC3)nc3ccc(CNc4cc(C)c(C)cc4S)cc32)n1 [Compound 91],6.7
9,Cc1ccc(O)c(Cn2c(NC3CCN(C)CC3)nc3ccc(CO)cc32)n1 [Compound 92],6.6
10,Cc1ccc(O)c(Cn2c(NC3CCN(C)CC3)nc3ccc(CNc4ccc(Br)c5ccccc45)cc32)n1 [Compound 94],6.6
11,Cc1cc(C)c(NCc2ccc3nc(NC4CCN(C)CC4)n(Cc4nc(C)ccc4O)c3c2)c(C)c1 [Compound 96],6.6
12,Cc1ccc(O)c(Cn2c(NC3CCN(C)CC3)nc3ccc(CN4CCOC(CCO)C4)cc32)n1 (stereo not shown) [Compound 97],6.6
13,Cc1ccc(O)c(Cn2c(NC3CCN(C)CC3)nc3ccc(CN4CCOCC4)cc32)n1 [Compound 98],6.5
14,Cc1ccc(O)c(Cn2c(NC3CCN(C)CC3)nc3ccc(/C=C/c4ccccc4)cc32)n1 [Compound 99],6.4
15,Cc1ccc(O)c(Cn2c(NC3CCN(C)CC3)nc3cc(/C=C/c4ccccc4)ccc32)n1 [Compound 100],6.4
16,COCCN(CCOC)Cc1ccc2nc(NC3CCN(C)CC3)n(Cc3nc(C)ccc3O)c2c1 [Compound 102],6.4
17,Cc1cccc(/C=C/c2ccc3nc(NC4CCN(C)CC4)n(Cc4nc(C)ccc4O)c3c2)c1 [Compound 103],6.3
18,Cc1cccc(/C=C/c2ccc3c(c2)nc(NC2CCN(C)CC2)n3Cc2nc(C)ccc2O)c1 [Compound 104],6.2
19,Cc1ccc(O)c(Cn2c(NC3CCN(C)CC3)nc3ccc(CN(C)CCc4ccccc4)cc32)n1 [Compound 105],6.2

row,Compound,Activity
1,Cc1ccc(O)c(Cn2c(NC3CCN(C)CC3)nc3ccc(NC(=O)CCc4ccccc4)cc32)n1 [Compound 106],6.1
2,Cc1ccc(O)c(Cn2c(NC3CCN(C)CC3)nc3ccc(NC(=O)Cc4ccccc4)cc32)n1 [Compound 107],6.1
3,Cc1ccc(O)c(Cn2c(NC3CCN(C)CC3)nc3ccc(NC(=O)Cc4ccccn4)cc32)n1 [Compound 108],6
4,CCCCN(CCO)Cc1ccc2nc(NC3CCN(C)CC3)n(Cc3nc(C)ccc3O)c2c1 [Compound 109],6
5,Cc1ccc(O)c(Cn2c(NC3CCN(C)CC3)nc3ccc(CNCCc4ccccc4)cc32)n1 [Compound 110],5.8
6,CCN(CCO)Cc1ccc2nc(NC3CCN(C)CC3)n(Cc3nc(C)ccc3O)c2c1 [Compound 111],5.6
7,Cc1ccc(O)c(Cn2c(NC3CCN(C)CC3)nc3ccc(C(=O)Nc4ccccc4)cc32)n1 [Compound 112],5.5
8,Cc1ccc(O)c(Cn2c(NC3CCN(C)CC3)nc3cc(NC(=O)Cc4ccccn4)ccc32)n1 [Compound 113],5.5
9,Cc1ccc(O)c(Cn2c(NC3CCN(C)CC3)nc3ccc(NC(=O)c4cccnc4)cc32)n1 [Compound 114],5.2
10,Cc1ccc(O)c(Cn2c(NC3CCN(C)CC3)nc3cc(/C=C/C#N)ccc32)n1 [Compound 115],5.1
11,Cc1ccc(O)c(Cn2c(NC3CCN(C)CC3)nc3ccc(CNCCN4CCOCC4)cc32)n1 [Compound 117],5.1
12,Cc1ccc(O)c(Cn2c(NC3CCN(C)CC3)nc3cc(C(=O)NCc4ccco4)ccc32)n1 [Compound 118],4.9
13,Cc1ccc(O)c(Cn2c(NC3CCN(C)CC3)nc3ccc(C(=O)NCc4ccco4)cc32)n1 [Compound 119],4.8
14,Cc1ccc(O)c(Cn2c(NC3CCN(C)CC3)nc3cc(C(=O)NCCc4ccccc4)ccc32)n1 [Compound 120],4.6
15,Cc1ccc(O)c(Cn2c(NC3CCN(C)CC3)nc3cc(CO)ccc32)n1 [Compound 122],<4
16,Cc1ccc(/C=C/c2ccc3c(c2)nc(NC2CCN(C)CC2)n3Cc2nc(C)ccc2O)cc1 [Compound 125],<4
17,Cc1ccc(O)c(Cn2c(NC3CCN(C)CC3)nc3ccc(/C=C/c4ccc(Cl)cc4)cc32)n1 [Compound 126],<4
18,Cc1ccc(O)c(Cn2c(NC3CCN(C)CC3)nc3cc(/C=C/c4ccc(Cl)cc4)ccc32)n1 [Compound 127],<4
